Patent US9802990B2, “Functional peptides for obesity disorders” (DANONE, S.A., priority 2013, dated 2017)
Read-outs that look alike come from different tables or passages of the source. Where no end group is shown, it is not given here.

Assays:
[1] = system: C. elegans wild type strain N2; assay: C. elegans body fat reduction, Nile Red staining; assay type: in vivo, Caenorhabditis elegans; settings: for % Fluorescence Reduction: nematodes fed NG with peptides alone or in Savia soy fermented product, alone or mixed, 1 μg/mL final concentration, Nile Red; for % Fluorescence Reduction C. elegans: synthesized peptides at 1 μg/mL of final concentration
Experimental: The ability to reduce body fat content in the nematode C. elegans was analyzed in a group of 5 peptide extracts previously obtained from glycinin (see Table 4). These samples were selected by their high effect on PL and PLA2 in vitro inhibition. Specifically, 5 peptide extracts were selected from the PLA2 inhibition assay (M20G, M5G, M31G, M27G and M29G). Body fat content was analyzed in the C. elegans wild type strain N2 by Red Nile dying of living nematodes. Experiments were carried out with age-synchronized populations, starting from egg-stage to young adult stage (3-day adults). During the experiments, worms were cultured in the NGM agar plates as control condition, NGM with the corresponding peptide extracts (100 μL/plate) and NGM with 6 μg/mL of Orlistat as positive control. Nile Red was added on top of the NG plates already seeded with Escherichia coli OP50 strain to a final concentration of 0.05 μg/ml. After incubation at 20° C., young adult worms (60 worms per condition) were taken to measure the in vivo fluorescence in a VersaFluor™ Fluorometer System. Fluorescence obtained in treated worms was calculated from fluorescence of worms fed in control conditions (reference sample). Experiments were carried out by duplicate.
From these purified fractions, a total of 11 peptides were selected to be synthesized and evaluated in vivo in the obesity model of C. elegans (Table 9). All peptides were evaluated at 1 μg/mL of final concentration.
We selected 5 peptides obtained from hydrolysis of glycinin with strain 6 (P8a, P6a, P14c, P16f, P14b) The peptides from glycinin were added to a soy fermented product (Savia® from Danone) both alone or mixed at final concentration of 1 μg/mL. Nematodes were fed with these products and then total lipids were quantified by Nile Red staining.

PL (pancreatic lipase) = biological target: T1, PL (pancreatic lipase) (Sus scrofa, UniProt P00591); assay: PL inhibition assay with 4-methyl umbelliferyl oleate (4MUO), fluorescence; assay type: biochemical; settings: synthesized peptides
T1 sequence (P00591 1-450): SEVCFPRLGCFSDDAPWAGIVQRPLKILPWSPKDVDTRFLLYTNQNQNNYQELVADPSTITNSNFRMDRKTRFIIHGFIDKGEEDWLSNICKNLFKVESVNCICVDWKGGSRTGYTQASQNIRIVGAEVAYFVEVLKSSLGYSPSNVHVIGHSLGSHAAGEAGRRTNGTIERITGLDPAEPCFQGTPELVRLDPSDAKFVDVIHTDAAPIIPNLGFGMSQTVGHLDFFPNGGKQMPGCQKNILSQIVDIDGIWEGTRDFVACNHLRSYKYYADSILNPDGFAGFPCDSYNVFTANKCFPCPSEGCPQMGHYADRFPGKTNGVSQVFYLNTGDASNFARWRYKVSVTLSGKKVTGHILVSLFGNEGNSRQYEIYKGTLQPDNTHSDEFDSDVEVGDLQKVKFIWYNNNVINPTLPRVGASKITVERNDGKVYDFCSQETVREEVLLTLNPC
Experimental: Inhibition of PL was determined using 4-methyl umbelliferyl oleate (4MUO) as substrate as described by Sugiyama et al. (Oligomeric procyanidins in apple polyphenol are main active components for inhibition of pancreatic lipase and triglyceride absorption. J Agric Food Chem (2007); 55: 4604-4609) with some modifications. Aliquots of 25 μl of each peptide extract were incubated with 25 μl of PL solution (1 mg/ml) and preincubated for 10 minutes at 26° C. with stirring of 500 rpm. Reaction was initiated by adding 50 μl of 4MUO (0.1 mM) dissolved in Dulbecco's buffer. After incubation at 26° C. for 20 minutes with constant stirring (500 rpm) the reaction was stopped by adding 100 μl of 0.1 M sodium citrate buffer (pH 4.2). The amount of 4-methyl umbelliferone released by the enzyme was determined by fluorescence. Peptide extracts were used as inhibitors in the enzymatic assay but had to be diluted 1/20 or 1/50 because of the interference between the fluorescence and the buffer containing the peptides.

[2] = biological target: PLA2 (pancreatic phospholipase A2) (Homo sapiens, UniProt P04054); assay: PLA2 inhibition assay by HPLC with DOPC as substrate; assay type: biochemical
Experimental: Inhibition of PLA2 enzyme was determined by High Performance Liquid Chromatography (HPLC) using 1,2-dioleoyl-sn-glycero-3-phosphocholine (DOPC) as substrate as described by Singh et al. (A rapid isocratic high-performance liquid chromatography method for determination of cholesterol and 1,2-dioleoyl-sn-glycero-3-phosphocholine. Journal of Chromatography (2005); 1073:347-353). Waters 2695 HPLC with Waters 2996 Photodiode detector Array and a C8 column Hypersil BDS (250×4.6 mm, […]) were used carrying out an eluent isocratic method formed by a mixture of ammonium phosphate buffer 50 mM pH 2.7:methanol (15:85, v/v).

[3] = In vitro enzymatic digestion model of the digestive tract (pepsin, pancreatin, bile), HPLC; assay type: in vitro ADME
Description: An in vitro enzymatic digestion model of an in vivo digestive tract was developed for mimicking the physiological conditions to check and certify that each selected peptide was differently degraded throughout the gastro-intestinal tract by the digestive process. Pepsin, pancreatin and bile concentrations were optimized using a published experimental design (Granado-Lorencio et al (2007). J. Agri. Food. Chem., 55, 6387-6394).

soy glycinin = assay: Protease activity of LAB strains (supernatant and cells); assay type: biochemical; settings: for Protease activity cell: cells; for Protease activity Supernatant: culture supernatant, proteases above 10 KDa concentrated
Description: For the purpose of selecting the most efficient lactic acid bacteria having protease activity against glycinin, different strains of the genera Lactobacillus and Streptococcus were subject to the following hydrolysis assay.
The substrate selected to carry out the process of hydrolysis was soy glycinin. Glycinin is the soy major protein extracted from soy flour after treatment with mercaptoethanol followed by two centrifugation steps as described in Thanh V. H. et al. (Major proteins of soybean seeds: a straightforward fractionation and their characterization. 1976. J Agric Food Chem 24: 1117-1121). Among the enzymatic sources used to degrade glycinin, ten strains were tested: 6 strains from Streptococcus genera (strains 2, 3, 4, 5, 6, 7) and 4 strains from Lactobacillus genera (strains 8, 9, 10 and 11). All these strains were grown in optimal medium (MRS for Lactobacillus strains and BHI for Streptococcus strains) during 17 h at 37° C. and the proteases with a molecular weight above 10 KDa both in supernatant and cells were concentrated to be used as enzymatic sources in glycinin hydrolysis assays. On one hand, proteases from the supernatant were obtained after centrifugation for 15 min at 4000 rpm. Then the supernatant was ultrafiltrated by 10 KDa and the top was resuspended in 2 ml with 50 mM citrate phosphate buffer pH 7. On the other hand, cells obtained from the different cultures were washed with saline solution for 15 min at 4000 rpm and resuspended in 50 mM citrate phosphate buffer pH 7 to evaluate the protease activity in cells and supernatant (Table 1).

PLA2 (pancreatic phospholipase A2), sequence (P04054 23-148, species assumed): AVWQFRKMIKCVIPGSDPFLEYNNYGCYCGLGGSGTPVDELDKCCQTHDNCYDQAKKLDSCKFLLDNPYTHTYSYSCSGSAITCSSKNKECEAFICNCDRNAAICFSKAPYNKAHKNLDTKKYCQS

CCCCCCCCCCC[C@@H](C[C@@H]1OC(=O)[C@H]1CCCCCC)OC(=O)[C@H](CC(C)C)NC=O [Orlistat, reference compound]
% Fluorescence Reduction [1]: 29.5 ± 0.1%

DEDEDEDEDKPRPSRP (DEDEDEDEDKPRPSRP; listed as Glycine soja) [Peptide P16e]
% Fluorescence Reduction C. elegans [1]: 21.86 ± 4%

DEDEDEDKPRPSRP (DEDEDEDKPRPSRP; listed as Glycine soja) [Peptide P14d]
% Fluorescence Reduction C. elegans [1]: 6.26 ± 7.6%

EEDQPRPDHPPQRP [Peptide P14c, EEDQPRPDHPPQRP]
IC50 (PL (pancreatic lipase)): 28.9 µM | Percentage of PLA2 inhibition ([2]; peptide 0.035 mg/ml): 20.4 ± 4.4% | Percentage of PLA2 inhibition ([2]; peptide 0.35 mg/ml): 21.1 ± 4.3% | Percentage of PLA2 inhibition ([2]; peptide 2 mg/ml): 25.2 ± 4.3% | Percentage of PLA2 inhibition ([2]; peptide 3.5 mg/ml): 26.1 ± 4.1% | % Fluorescence Reduction [1]: 33.7 ± 5.5% | % Fluorescence Reduction C. elegans [1]: 39.37 ± 7.08% | metabolised at 0.5 h ([3]; Gastric phase 30 min., read-out: Degradation (%)): 4.2% | metabolised at 2 h ([3]; Gastric phase 120 min., read-out: Degradation (%)): 4.6% | degradation in the in vitro digestion model (in words) ([3]; HPLC, completely degraded = at the beginning of the intestinal phase, resistant ones finally degraded at the end): completely degraded | metabolised at 0.25 h ([3]; Intestinal phase 15 min., read-out: Degradation (%)): 92.9% | metabolised at 0.5 h ([3]; Intestinal phase 30 min., read-out: Degradation (%)): 93.2% | metabolised at 1 h ([3]; Intestinal phase 60 min., read-out: Degradation (%)): 95% | metabolised at 2 h ([3]; Intestinal phase 120 min., read-out: Degradation (%)): 95.5% | metabolised at 5 min ([3]; Oral phase 5 min., read-out: Degradation (%)): 5.3%

EEEGGSVLSG [Peptide P10b, EEEGGSVLSG]
IC50 (PL (pancreatic lipase)): 36.3 µM | Percentage of PLA2 inhibition ([2]; peptide 0.035 mg/ml): 7.8 ± 5.6% | Percentage of PLA2 inhibition ([2]; peptide 0.35 mg/ml): 13.9 ± 3.3% | Percentage of PLA2 inhibition ([2]; peptide 2 mg/ml): 26.1 ± 5.9% | Percentage of PLA2 inhibition ([2]; peptide 3.5 mg/ml): 26.9 ± 2.5% | % Fluorescence Reduction C. elegans [1]: 33.48 ± 6.1%

GKREQDEDEDEDEDKPRPSRP (GKREQDEDEDEDEDKPRPSRP; listed as Glycine soja) [Peptide P21b]
% Fluorescence Reduction C. elegans [1]: 24.91 ± 7.1%

HQQEEENEGGSILSG (HQQEEENEGGSILSG; listed as Glycine soja) [Peptide P15a]
% Fluorescence Reduction C. elegans [1]: 22.82 ± 6.1%

Lactobacillus delbrueckii lactis CNCM I-4280 [Strain 8]
Protease activity cell (soy glycinin): 0.009 U.I./ml | Protease activity Supernatant (soy glycinin): 0.028 U.I./ml

Lactobacillus helveticus CNCM I-4279 [Strain 9]
Protease activity cell (soy glycinin): 0.012 U.I./ml | Protease activity Supernatant (soy glycinin): 0.010 U.I./ml

Lactobacillus paracasei paracasei CNCM I-1518 [Strain 11]
Protease activity cell (soy glycinin): 0.006 U.I./ml | Protease activity Supernatant (soy glycinin): 0.029 U.I./ml
